In patent publication US12528790B2, “Amide derivative having antiviral activity” (Shionogi & Co., Ltd., priority 2020, dated 2026):
pEC50: −log10 of the molar value. Where two headings read alike, the source gives them in different places.

Key:
RSV A2 strain = test: In vitro CPE (CytoPathic Effect) inhibition effect evaluation test, RSV type A; type: cell-based
Method in brief: (§1)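 HEp-2 cells (2.4×10^5 cells/mL, 2% FBS E-MEM) were infected with RSV alongside 3-fold compound dilutions and incubated at 37 °C, 4 days for A2 and 5 days for B Wash/18537. Viable cells quantified by CellTiter-Glo 2.0 luminescence; EC50 by nonlinear regression as 50% CPE inhibition.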

[1] = test system: RSV B (Wash/18537 strain); test: In vitro CPE (CytoPathic Effect) inhibition effect evaluation test, RSV type B; type: cell-based
Method in brief: as §1

[2] = human respiratory syncytial virus, inhibitory effect against RSV type A (RSV A2 strain), HEp-2 cells, CPE inhibition, read-out: EC50
[3] = human respiratory syncytial virus, inhibitory effect against RSV type B, CPE inhibition, read-out: EC50
[4] = human respiratory syncytial virus, HEp-2, 96 h, read-out: EC50, inhibitory effect against RSV type A (CPE inhibition)
[5] = human respiratory syncytial virus, HEp-2, 120 h, HEp-2 cells, RSV B (Wash/18537 strain), 5 days, CellTiter-Glo, read-out: EC50, inhibitory effect against RSV type B (CPE inhibition)
[6] = inhibitory effect against RSV type A (RSV A2 strain), HEp-2 cells, CPE inhibition, read-out: EC50
[7] = inhibitory effect against RSV type B, CPE inhibition, read-out: EC50

Structure (SMILES) | pEC50 (RSV A2 strain; [2]) | pEC50 [1, 3] | other results
O=C(NC1(C(=O)O)C2CC3CC(C2)CC1C3)c1ccc(-c2cn(-c3cccnc3)c3cc(OC4CCN(c5ncccn5)CC4)ccc23)nc1C(F)(F)F (stereo not shown) [Compound I-177] | > 8.00 | > 8.00 | –
O=C(NC1(C(=O)O)C2CC3CC(C2)CC1C3)c1cnc(N2CC3(CCCCC3)c3cc(OC4CCN(CC5(F)COC5)CC4)ccc32)nc1C(F)(F)F (stereo not shown) [Compound I-484] | > 8.00 | 7.00 to 8.00 | –
O=C(NC1(C(=O)O)C2CC3CC(C2)CC1C3)c1cnc(-c2cn(C3CCC(F)(F)CC3)c3cc(C(=O)N4CCN(CC(F)(F)F)CC4)ccc23)nc1C(F)(F)F (stereo not shown) [Compound I-418] | > 8.00 | > 8.00 | –
O=C(NC1(C(=O)O)C2CC3CC(C2)CC1C3)c1cnc(N2CC3(CCCCC3)c3cc(OC4CCN(c5ncccn5)CC4)ccc32)nc1C(F)(F)F (stereo not shown) [Compound I-214] | > 8.00 | > 8.00 | –
O=C(NC1(C(=O)O)C2CC3CC(C2)CC1C3)c1cnc(-c2cn(C3CCC(F)(F)CC3)c3cc(OC4CC(CN5CC(F)(F)C5)C4)ccc23)nc1C(F)(F)F (single isomer, unassigned) [Compound I-516] | > 8.00 | 7.00 to 8.00 | –
O=C(NC1(C(=O)O)C2CC3CC(C2)CC1C3)c1cnc(N2CC3(CCCCC3)c3cc(-n4ncc5c4CCN(CC(F)(F)F)C5)ccc32)nc1C(F)(F)F (stereo not shown) [Compound I-606] | > 8.00 | > 8.00 | –
O=C(NC1(C(=O)O)C2CC3CC(C2)CC1C3)c1cnc(N2CC3(CCCCC3)c3cc(C(=O)N4CCN(c5ncc(F)cn5)CC4)ccc32)nc1C(F)(F)F (stereo not shown) [Compound I-504] | > 8.00 | > 8.00 | –
O=C(NC1(C(=O)O)C2CC3CC(C2)CC1C3)c1cnc(-c2cn(C3CC3)c3cc(O[C@H]4CC[C@@H](N5CC(F)(F)C5)CC4)ccc23)nc1C(F)(F)F (stereo partly shown) [Compound I-543] | > 8.00 | > 8.00 | –
CCC1(CC)CN(c2ncc(C(=O)NC3(C(=O)O)C4CC5CC(C4)CC3C5)c(C(C)(F)F)n2)c2ccc(O[C@H]3CC[C@H](N4CC(F)(F)C4)CC3)cc21 (stereo partly shown) [Compound I-591] | – | – | pEC50 (RSV A2 strain; [4]): 9.21; pEC50 [1, 5]: 8.66
CC(F)(F)c1nc(-c2cn(C3CCC(F)(F)CC3)c3cc(O[C@H]4C[C@@H](N5CC(F)(F)C5)C4)ccc23)ncc1C(=O)NC1(C(=O)O)C2CC3CC(C2)CC1C3 (single isomer, unassigned) [Compound I-619] | > 8.00 | > 8.00 | –
CC(F)(F)c1nc(N2CC3(CCCCC3)c3cc(O[C@H]4CC[C@H](n5ccnn5)CC4)ccc32)ncc1C(=O)NC1(C(=O)O)C2CC3CC(C2)CC1C3 (stereo partly shown) [Compound I-563] | > 8.00 | > 8.00 | –
CC(F)(F)c1nc(N2CC3(CCCCC3)c3cc(OC4CCN(c5ncccn5)CC4)ccc32)ncc1C(=O)NC1(C(=O)O)C2CC3CC(C2)CC1C3 (stereo not shown) [Compound I-380] | > 8.00 | > 8.00 | –
N#Cc1cc(C(=O)NC2(C(=O)O)C3CC4CC(C3)CC2C4)c(C(F)(F)F)nc1N1CC2(CCOCC2)c2cc(OC3CCN(c4ncccn4)CC3)ccc21 (stereo not shown) [Compound I-276] | > 8.00 | > 8.00 | –
CC(F)(F)CN1CCC(Oc2ccc3c(c2)C2(CCOCC2)CN3c2ncc(C(=O)NC3(C(=O)O)C4CC5CC(C4)CC3C5)c(C(C)(F)F)n2)CC1 (stereo not shown) [Compound I-548] | > 8.00 | > 8.00 | –
Cn1ncc2c1CCC(Oc1ccc3c(c1)C1(CCOCC1)CN3c1ncc(C(=O)NC3(C(=O)O)C4CC5CC(C4)CC3C5)c(C(F)(F)F)n1)C2 (single isomer, unassigned) [Compound I-190] | > 8.00 | > 8.00 | –
O=C(NC1(C(=O)O)C2CC3CC(C2)CC1C3)c1cnc(N2CC3(CCOCC3)c3cc(C(=O)N4CC(C(F)(F)F)C4)ccc32)nc1C(F)(F)F (stereo not shown) [Compound I-490] | > 8.00 | > 8.00 | –
CC(F)(F)c1nc(N2CC3(CCOCC3)c3cc(OC4CCC(N5CCC(F)(F)C5)CC4)ccc32)ncc1C(=O)NC1(C(=O)O)C2CC3CC(C2)CC1C3 (stereo not shown) [Compound I-538] | – | – | pEC50 (RSV A2 strain; [6]): > 8.00; pEC50 [1, 7]: > 8.00
CCC(CC)n1cc(-c2ccc(C(=O)NC3(C(=O)O)C4CC5CC(C4)CC3C5)c(C(F)(F)F)n2)c2ccc(O[C@H]3CC[C@H](N4CC(F)(F)C4)CC3)cc21 (stereo partly shown) [Compound I-575] | > 8.00 | > 8.00 | –
CC(F)(F)c1nc(N2CC3(CCOCC3)c3cc(OC4CCN(CC5CC(F)(F)C5)CC4)ccc32)ncc1C(=O)NC1(C(=O)O)C2CC3CC(C2)CC1C3 (stereo not shown) [Compound I-533] | > 8.00 | > 8.00 | –
O=C(NC1(C(=O)O)C2CC3CC(C2)CC1C3)c1cnc(N2CC3(CCCC3)c3cc(O[C@@H]4CCN(CC(F)(F)F)C4)ccc32)nc1C(F)(F)F (stereo partly shown) [Compound I-566] | > 8.00 | > 8.00 | –
O=C(NC1(C(=O)O)CCCCC1)c1cnc(N2CC3(CCOCC3)c3cc(OCCC4CCOCC4)ccc32)nc1C(F)(F)F [Compound I-56] | > 8.00 | 7.00 to 8.00 | –

Structure (SMILES) | pEC50 (RSV A2 strain; [2]) | pEC50 [1, 3] | other results
O=C(NC1(C(=O)O)C2CC3CC(C2)CC1C3)c1cnc(N2CC(C3CCCC3)c3cc(OC4CCN(c5ncc(F)cn5)CC4)ccc32)nc1C(F)(F)F (racemic) [Compound I-486] | – | – | pEC50 (RSV A2 strain; [4]): 8.52; pEC50 [1, 5]: 7.55
O=C(NC1(C(=O)O)C2CC3CC(C2)CC1C3)c1cnc(N2CC3(CCOCC3)c3cc(OCCN4CCOCC4)ccc32)nc1C(F)(F)F (stereo not shown) [Compound I-86] | – | – | pEC50 (RSV A2 strain; [6]): > 8.00; pEC50 [1, 7]: > 8.00
O=C(NC1(C(=O)O)C2CC3CC(C2)CC1C3)c1cnc(-c2cn(C3CCC(F)(F)CC3)c3cc(O[C@H]4CC[C@@H](N5CC(F)(F)C5)CC4)ccc23)nc1C(F)(F)F (stereo partly shown) [Compound I-415] | > 8.00 | > 8.00 | –
O=C(NC1(C(=O)O)C2CC3CC(C2)CC1C3)c1ccc(-c2cn(C3CCC(F)CC3)c3cc(OC4CCN(c5ncc(F)cn5)CC4)ccc23)nc1C(F)(F)F (single isomer, unassigned) [Compound I-397] | > 8.00 | > 8.00 | –
COc1cccc(COc2ccc3c(c2)CCN3c2ncc(C(=O)NC3(C(=O)O)C4CC5CC(C4)CC3C5)c(C(F)(F)F)n2)c1 (stereo not shown) [Compound I-21] | > 8.00 | 7.00 to 8.00 | –
O=C(NC1(C(=O)O)C2CC3CC(C2)CC1C3)c1cnc(N2CC3(CCCCC3)c3cc(OC4CCC(=NOC5CC(F)(F)C5)CC4)ccc32)nc1C(F)(F)F (racemic) [Compound I-475] | – | – | pEC50 (RSV A2 strain; [6]): > 8.00; pEC50 [1, 7]: 7.00 to 8.00
CC(F)(F)c1nc(N2CC3(CCOCC3)c3cc(O[C@H]4CC[C@H](N5CC(F)(F)C5)CC4)ccc32)ncc1C(=O)NC1(C(=O)O)C2CC3CC(C2)CC1C3 (stereo partly shown) [Compound I-506] | > 8.00 | > 8.00 | –
CC(F)(F)c1nc(N2CC3(CCCCC3)c3cc(C(=O)N4CCC(C(F)F)CC4)ccc32)ncc1C(=O)NC1(C(=O)O)C2CC3CC(C2)CC1C3 (stereo not shown) [Compound I-610] | > 8.00 | > 8.00 | –
CC(F)(F)c1nc(N2CC3(CCCCC3)c3cc(C(=O)N4CCN(CC(F)(F)F)CC4)ccc32)ncc1C(=O)NC1(C(=O)O)C2CC3CC(C2)CC1C3 (stereo not shown) [Compound I-608] | > 8.00 | > 8.00 | –
O=C(NC1(C(=O)O)C2CC3CC(C2)CC1C3)c1cnc(-c2cn(C3CCC(F)(F)CC3)c3cc(-n4ncc5c4CCN(CC(F)(F)F)C5)ccc23)nc1C(F)(F)F (stereo not shown) [Compound I-573] | > 8.00 | > 8.00 | –
O=C(NC1(C(=O)O)C2CC3CC(C2)CC1C3)c1cnc(N2CC3(CCCCC3)c3cc(OC4CCN(c5ncco5)CC4)ccc32)nc1C(F)(F)F (stereo not shown) [Compound I-519] | > 8.00 | > 8.00 | –
COC1CCC(n2cc(-c3ncc(C(=O)NC4(C(=O)O)C5CC6CC(C5)CC4C6)c(C(F)(F)F)n3)c3ccc(OC4CCN(c5ncc(F)cn5)CC4)cc32)CC1 (single isomer, unassigned) [Compound I-423] | > 8.00 | > 8.00 | –
O=C(NC1(C(=O)O)C2CC3CC(C2)CC1C3)c1cnc(N2CC3(CCCCC3)c3cc(O[C@@H]4CCN(CC(F)(F)F)C4)ccc32)nc1C(F)(F)F (stereo partly shown) [Compound I-518] | > 8.00 | > 8.00 | –
O=C(NC1(C(=O)O)C2CC3CC(C2)CC1C3)c1cnc(N2CC3(CCCC3)c3cc(OC4CCC5(CC4)COC5)ccc32)nc1C(F)(F)F (stereo not shown) [Compound I-488] | > 8.00 | > 8.00 | –
CC(F)(F)c1nc(N2CC3(CCCCC3)c3cc(OC4CCN(c5ncc(F)cn5)CC4)ncc32)ncc1C(=O)NC1(C(=O)O)C2CC3CC(C2)CC1C3 (stereo not shown) [Compound I-557] | > 8.00 | > 8.00 | –
O=C(NC1(C(=O)O)C2CC3CC(C2)CC1C3)c1cnc(-c2cn(C3CCC(F)(F)CC3)c3nc(OC4CCN(c5ncccn5)CC4)ccc23)nc1C(F)(F)F (stereo not shown) [Compound I-228] | – | – | pEC50 (RSV A2 strain; [4]): 8.89; pEC50 [1, 5]: 7.44
COCCCCOc1ccc2c(c1)CCN2c1ncc(C(=O)NC2(C(=O)O)CCCCC2)c(C(F)(F)F)n1 [Compound I-2] | 7.00 to 8.00 | 5.30 to 7.00 | –
CCC(C)n1cc(-c2ncc(C(=O)NC3(C(=O)O)C4CC5CC(C4)CC3C5)c(C(F)(F)F)n2)c2ccc(O[C@H]3CC[C@H](N4CC(F)(F)C4)CC3)cc21 (stereo partly shown) [Compound I-617] | > 8.00 | > 8.00 | –
CC(F)(F)c1nc(N2CC3(CCOCC3)c3cc(-n4ncc5c4CCN(CC(F)(F)F)C5)ncc32)ncc1C(=O)NC1(C(=O)O)C2CC3CC(C2)CC1C3 (stereo not shown) [Compound I-602] | > 8.00 | > 8.00 | –
CC(F)(F)c1nc(N2CC3(CCCCC3)c3cc(OC4CCN(c5ncc(F)cn5)CC4)ncc32)ncc1C(=O)N[C@]1(C(=O)O)[C@@H]2CC3C[C@H]1C[C@@](F)(C3)C2 [Compound I-600] | > 8.00 | > 8.00 | –
